# According to US20240299359A1, “PHARMACEUTICAL COMPOSITION FOR ANIMALS CONTAINING 5-HYDROXY-METHYLIMIDAZOLIDINE-2,4-DIONE COMPOUND AS ACTIVE INGREDIENT” (KYONGBO PHARM. CO., LTD., priority 2021, published 2024):
# Several values for one entry are separate records, joined by “and”; a condition that tells them apart may be missing. Equal values may be shown once.
# System: beagles
# Assay: 13-week repeated oral toxicity: hematological test
# Assay type: in vivo, beagle
# Protocol: Fasting was conducted the day before administration (blood test date, pre), the 4th week (day 29) after administration, the 8th week (day 57) after administration, and the 13th week (day 92) after administration, and when the remaining feed was present in the feed container 3 hours after feeding on the day of fasting, it was removed.
# All subjects were fasted for 16 hours and measurements were then performed pre (before administration), 4 weeks (day 29) after administration, 8 weeks (day 57) after administration, and 13 weeks (day 92) after administration. Within 3 hours after 2 to 3 ml of blood collected from the jugular vein of each subject was injected into a CBC bottle containing EDTA, RBC, HGB, HCT, RBC indices (MCV, MCH, MCHC), and platelet count and WBC differential count were measured using an automatic hematometer.
# [1] = G2 200 mg/kg group, female (F4-F6, Mean), before administration (day 0)
# [2] = G2 200 mg/kg group, female (F4-F6, Mean), before administration (day 0), mean
# [3] = G2 200 mg/kg group, male (M4-M6, Mean), before administration (day 0)
# [4] = G2 200 mg/kg group, male (M4-M6, Mean), before administration (day 0), mean
# [5] = G2 200 mg/kg, repeated administration for 13 weeks, female, group mean
# [6] = G2 200 mg/kg, repeated administration for 13 weeks, female, individual animals
# [7] = G2 200 mg/kg, repeated administration for 13 weeks, male, group mean
# [8] = G2 200 mg/kg, repeated administration for 13 weeks, male, individual animals
# [9] = G3 500 mg/kg group, female (F7-F9, Mean), before administration (day 0)
# [10] = G3 500 mg/kg group, female (F7-F9, Mean), before administration (day 0), mean
# [11] = G3 500 mg/kg group, male (M7-M9, Mean), before administration (day 0)
# [12] = G3 500 mg/kg group, male (M7-M9, Mean), before administration (day 0), mean
# [13] = G3 500 mg/kg, repeated administration for 13 weeks, female, group mean
compound,measurement,setting,value
"CN1C(=O)NC(=O)C1O (stereo not drawn) [KBP-001, 5-hydroxy-1-methylimidazolidine-2,4-dione]",HCT,[1],47.0% and 49.6% and 51.3%
same,HGB,[1],15. g/dl and 16.7 g/dl and 17.5 g/dl
same,MCH,[1],22.5 pg and 22.6 pg and 22.7 pg
same,MCHC,[1],33.8 g/dL and 33.6 g/dL and 34.1 g/dL
same,MCV,[1],66.6 fL and 67.3 fL and 66.7 fL
same,Retic,[1],0.77% and 1.34% and 1.01%
same,WBC Differential Counting Baso,[1],1.0% (2×) and 0.8%
same,WBC Differential Counting Eos,[1],7.3% and 5.5% and 4.5%
same,WBC Differential Counting Lymph,[1],30.0% and 20.55% and 30.2%
same,WBC Differential Counting Mono,[1],5.7% and 6.2% and 6.1%
same,WBC Differential Counting Neut,[1],55.5% and 66.3% and 57.6%
same,HCT,[2],49.30%
same,HGB,[2],16.70 g/dL
same,MCH,[2],22.6 pg
same,MCHC,[2],33.83 g/dL
same,MCV,[2],66.9 fL
same,Retic,[2],1.04%
same,WBC Differential Counting Baso,[2],0.93%
same,WBC Differential Counting Eos,[2],5.77%
same,WBC Differential Counting Lymph,[2],27.00%
same,WBC Differential Counting Mono,[2],6.00%
same,WBC Differential Counting Neut,[2],59.80%
same,HCT,[3],48.1% and 48.8% and 45.2%
same,HGB,[3],16.0 g/dL and 15.2 g/dL
same,MCH,[3],22.2 pg and 21.7 pg and 21 pg
same,MCHC,[3],33.3 g/dL and 32.9 g/dL and 33.7 g/dL
same,MCV,[3],66.8 fL and 66.1 fL and 62.3 fL
same,Retic,[3],1.21% and 1.16% and 1.11%
same,WBC Differential Counting Baso,[3],1.0% and 0.9% and 0.8%
same,WBC Differential Counting Eos,[3],3.5% and 4.7% and 6.4%
same,WBC Differential Counting Lymph,[3],40.5% and 29.4% and 23.2%
same,WBC Differential Counting Mono,[3],4.7% and 8.3% and 6.0%
same,WBC Differential Counting Neut,[3],49.6% and 56.2% and 63.3%
same,HCT,[4],47.37%
same,HGB,[4],15.73 g/dL
same,MCH,[4],21.6 pg
same,MCHC,[4],33.30 g/dL
same,MCV,[4],65.1 fL
same,WBC Differential Counting Baso,[4],0.90%
same,WBC Differential Counting Eos,[4],4.87%
same,WBC Differential Counting Lymph,[4],31.03%
same,WBC Differential Counting Mono,[4],6.33%
same,WBC Differential Counting Neut,[4],56.37%
same,HGB,[5],15.77 g/dL
same,MCH,[5],22.9 pg
same,MCHC,[5],33.80 g/dL
same,MCV,[5],67.9 fL
same,Retic,[5],0.41%
same,WBC Differential Counting(%) Baso,[5],0.77%
same,WBC Differential Counting(%) Eos,[5],8.10%
same,WBC Differential Counting(%) Lymph,[5],28.50%
same,WBC Differential Counting(%) Mono,[5],5.30%
same,WBC Differential Counting(%) Neut,[5],56.90%
same,HCT,[6],45.3% and 47.7% and 46.9%
same,HGB,[6],15.3 g/dl and 16.0 g/dl (2×)
same,MCHC,[6],33.7 g/dL and 33.6 g/dL and 34.1 g/dL
same,MCV,[6],67.2 fL and 68.8 fL and 67.5 fL
same,Retic,[6],0.25% and 0.42% and 0.55%
same,WBC Differential Counting(%) Baso,[6],0.8% (2×) and 0.7%
same,WBC Differential Counting(%) Eos,[6],8.1% and 7.4% and 8.8%
same,WBC Differential Counting(%) Lymph,[6],25.1% and 33.4% and 27.0%
same,WBC Differential Counting(%) Mono,[6],5.3% and 5.0% and 5.6%
same,WBC Differential Counting(%) Neut,[6],60.2% and 53.1% and 57.4%
same,HCT,[7],46.43%
same,HGB,[7],15.53 g/dL
same,MCH,[7],22.2 pg
same,MCHC,[7],33.40 g/dL
same,MCV,[7],66.4 fL
same,Retic,[7],0.50%
same,WBC Differential Counting(%) Baso,[7],0.67%
same,WBC Differential Counting(%) Eos,[7],6.23%
same,WBC Differential Counting(%) Lymph,[7],31.10%
same,WBC Differential Counting(%) Mono,[7],6.47%
same,WBC Differential Counting(%) Neut,[7],55.10%
same,HCT,[8],43.8% and 47.0% and 48.5%
same,HGB,[8],14.4 g/dL and 15.8 g/dL and 16.4 g/dL
same,MCH,[8],22 pg and 22.8 pg and 21.8 pg
same,MCHC,[8],32.9 g/dL and 33.5 g/dL and 33.8 g/dL
same,MCV,[8],66.8 fL and 67.9 fL and 64.5 fL
same,Retic,[8],0.45% and 0.59% and 0.46%
same,WBC Differential Counting(%) Baso,[8],0.8% and 0.7% and 0.5%
same,WBC Differential Counting(%) Eos,[8],6.8% and 5.3% and 6.6%
same,WBC Differential Counting(%) Lymph,[8],35.9% and 32.7% and 24.7%
same,WBC Differential Counting(%) Mono,[8],6.1% and 7.5% and 5.8%
same,WBC Differential Counting(%) Neut,[8],50.0% and 53.4% and 61.9%
same,HCT,[9],44.4% and 50.3% and 47.5%
same,HGB,[9],14.6 g/dL and 16.9 g/dL and 15.9 g/dL
same,MCH,[9],22.5 pg and 22.2 pg and 22.1 pg
same,MCHC,[9],33.0 g/dL and 33.5 g/dL
same,MCV,[9],68.3 fL and 66.4 fL and 66.2 fL
same,Retic,[9],0.61% and 0.91% and 1.01%
same,WBC Differential Counting Baso,[9],0.6% and 1.5% and 0.4%
same,WBC Differential Counting Eos,[9],3.4% and 1.1% and 3.7%
same,WBC Differential Counting Lymph,[9],42.0% and 44.2% and 28.3%
same,WBC Differential Counting Mono,[9],4.9% and 3.7% and 5.9%
same,HCT,[10],47.40%
same,HGB,[10],15.80 g/dL
same,MCH,[10],22.3 pg
same,MCHC,[10],33.33 g/dL
same,MCV,[10],67 fL
same,Retic,[10],0.84%
same,WBC Differential Counting Baso,[10],0.83%
same,WBC Differential Counting Eos,[10],2.73%
same,WBC Differential Counting Lymph,[10],38.17%
same,WBC Differential Counting Mono,[10],4.83%
same,HCT,[11],44.8% and 43.0% and 52.1%
same,HGB,[11],15.0 g/dL and 13.8 g/dL and 17.4 g/dL
same,MCH,[11],23 pg and 22.3 pg and 22.9 pg
same,MCHC,[11],33.4 g/dL and 32.1 g/dL
same,MCV,[11],68 fL and 69.4 fL and 68.7 fL
same,Retic,[11],0.60% and 0.46% and 0.84%
same,WBC Differential Counting Baso,[11],0.4% and 0.8% and 1.1%
same,WBC Differential Counting Eos,[11],2.6% and 8.5% and 2.9%
same,WBC Differential Counting Lymph,[11],36.0% and 33.1% and 36.7%
same,WBC Differential Counting Mono,[11],5.9% and 7.8% and 5.8%
same,WBC Differential Counting Neut,[11],54.8% and 49.4% and 53.0%
same,HCT,[12],46.63%
same,HGB,[12],15.40 g/dL
same,MCH,[12],22.7 pg
same,MCHC,[12],32.97 g/dL
same,MCV,[12],69 fL
same,Retic,[12],0.63%
same,WBC Differential Counting Baso,[12],0.77%
same,WBC Differential Counting Eos,[12],4.67%
same,WBC Differential Counting Lymph,[12],35.27%
same,WBC Differential Counting Mono,[12],6.50%
same,WBC Differential Counting Neut,[12],52.40%
same,HCT,[13],48.00%
same,HGB,[13],16.00 g/dL
